This test relates to NCI-H226 cells, a human mesothelioma cell line. In words: Cell growth inhibitory effect, cell counting kit 8, 6 days. In kind it is cell-based. The settings on record: 144 h, 6 days incubation. The text has this:
Cell growth inhibitory effect on human mesothelioma, human liver cancer, human ovarian cancer, and […]
NCI-H226 cells, a human mesothelioma cell line (ATCC, CRL-5826), NCI-H322 cells, a human lung cancer cell line (the European Collection of Authenticated Cell Cultures, 95111734), OVTOKO cells, a human ovarian cancer cell line (JCRB cell bank, JCRB1048) and HuH28, a human liver cancer cell line (JCRB cell bank, JCRB0426) were each subcultured by keeping the cell density under 80% in a RPMI1640 culture medium with 10% fetal bovine serum (FBS). NCI-H226 cells, NCI-H322 cells and SSP-25 cells were each suspended in the RPM11640 culture medium mentioned above, and plated to a 96-well flat-bottom plate at 500 cells/well in each well, and incubated at 37° C. in an incubator with 5% CO2 for one day. After the incubation, the evaluation of cell growth inhibitory activity was started. OVTOKO cells were suspended in the RPMI1640 culture medium mentioned above, and plated to a 96-well flat-bottom plate at 250 cells/well in each well, and incubated it at 37° C. in an incubator with 5% CO2 for one day. After the incubation, the evaluation of the cell growth inhibitory activity was started. The next day, a test compound was serially diluted to 5 times of its final concentration in the RPM11640 culture medium mentioned above, and the diluted solution was added to each well. In this case, the final concentration of DMSO in each well was adjusted to 0.1%. After the test compound was added, cells were incubated at 37° C. in an incubator with 5% CO2 for 6 days. At the addition of the test compound and 6 days after the addition, the cell counting measurement was performed using a cell counting kit 8 (made by DOJINDO) according to a protocol equivalent to DOJINDO's recommendation. A reagent contained in the kit was added to each plate and color reaction was performed for 2 or 3 hours at 37° C. in an incubator with 5% CO2. After the reaction, an absorbance at wavelength of 450 nm was measured using a microplate reader. A growth inhibition rate was calculated according to the following formula, from which the concentration of a test compound at which cell growth was inhibited by 50% (GI50 value) was determined.

[1] abbreviates: group 100 nmol/L to 1 μmol/L (upper bound given in μmol/L).

Where only a bound is given, the exact number is not on record here.

Under setting [1], `C=CC(=O)NC1COc2c(cc(Br)cc2Oc2ccc(C(F)(F)F)nc2)C1` (racemic) [Compound 153, N-(6-Bromo-8-[{6-(trifluoromethyl)pyridin-3-yl}oxy]chroman-3-yl) acrylamide] showed a concentration for 50% growth inhibition (GI50) of 0.1 to 1 µM.
For the compound `C=CC(=O)N[C@H]1C[C@@H](C)Oc2cc(Oc3ccc(C(F)(F)F)cc3)ccc21` (relative stereo) [Compound 19, cis-N-[2-Methyl-7-{4-(trifluoromethyl)phenoxy}chroman-4-yl]acrylamide], the GI50 (group less than 100 nmol/L) was less than 0.1 µM.
On the same count and under the same terms, the result for `C=CC(=O)N[C@H]1C[C@H](C)Oc2cc(Oc3ccc(C(F)(F)F)cc3)ccc21` (relative stereo) [Compound 20, trans-N-[2-Methyl-7-{4-(trifluoromethyl)phenoxy}chroman-4-yl]acrylamide] reads less than 0.1 µM.
In the case of `C=CC(=O)N[C@H]1CC[C@@H](Oc2ccccc2)c2ncccc21` (relative stereo) [Compound 67, cis-N-(8-Phenoxy-5,6,7,8-tetrahydroquinolin-5-yl)acrylamide], the 50% growth inhibitory concentration (GI50) under setting [1] fell in the range of 0.1 to 1 µM.
Same read-out and setting: the result for `C=CC(=O)N[C@H]1CC[C@H](Oc2ccc(Cl)cc2)c2nc(OC)ccc21` (relative stereo) [Compound 81, trans-N-{8-(4-Chlorophenoxy)-2-methoxy-5,6,7,8-tetrahydroquinolin-5-yl}acrylamide] reads 0.1 to 1 µM; that for `C=CC(=O)N[C@H]1CC[C@@H](Oc2cnc(Cl)c(Cl)c2)c2nc(Cl)ccc21` (relative stereo) [Compound 181, cis-N-[2-Chloro-8-{(5,6-dichloropyridin-3-yl)oxy}-5,6,7,8-tetrahydroquinolin-5-yl]acrylamide], 0.1 to 1 µM; that for `C=CC(=O)N[C@H]1CC[C@@H](Oc2ccc(C(F)(F)F)cc2)c2nc(CC)ccc21` (relative stereo) [Compound 186, cis-N-[2-ethyl-8-{4-(trifluoromethyl)phenoxy}-5,6,7,8-tetrahydroquinolin-5-yl]acrylamide], 0.1 to 1 µM.
`C=CC(=O)NC1CCOc2cc(Oc3ccccc3)ccc21` (stereo not shown) [Compound 1, N-(7-phenoxychroman-4-yl)acrylamide] came in with a GI50 (group less than 100 nmol/L) of less than 0.1 µM.
Under “group less than 100 nmol/L”, `C=CC(=O)NC1CCOc2cc(Oc3ccc(Cl)cc3)ccc21` (stereo not shown) [Compound 3, N-{7-(4-Chlorophenoxy)chroman-4-yl}acrylamide] displayed a 50% growth inhibitory concentration (GI50) of less than 0.1 µM.
For the compound `C=CC(=O)NC1CCOc2cc(Oc3ccc(C(F)(F)F)c(Cl)n3)ccc21` (stereo not shown) [Compound 11, N-(7-[{6-Chloro-5-(trifluoromethyl)pyridin-2-yl}oxy]chroman-4-yl)acrylamide], where the note is “group less than 100 nmol/L”, the GI50 is less than 0.1 µM.
The compound `C=CC(=O)NC1CCOc2cc(OCc3ccccc3)ccc21` (stereo not shown) [Compound 14, N-{7-(Benzyloxy)chroman-4-yl}acrylamide] yielded a GI50 under setting [1] of 0.1 to 1 µM.
Still for that read-out and setting: the result for `C=CC(=O)NC1CCOc2cc(OCC3CCCCC3)ccc21` (stereo not shown) [Compound 16, N-{7-(Cyclohexylmethoxy)chroman-4-yl}acrylamide] reads 0.1 to 1 µM.
Still for that read-out and setting: the same measure for `C=CC(=O)NC1CCOc2cc(Oc3ccc(Cl)cc3)c(C)cc21` (stereo not shown) [Compound 23, N-{7-(4-Chlorophenoxy)-6-methylchroman-4-yl}acrylamide]: 0.1 to 1 µM.
On the same count and under the same terms, the result for `C=CC(=O)NC1CCOc2ccc(Oc3ccc(Cl)cc3)cc21` (stereo not shown) [Compound 24, N-{6-(4-Chlorophenoxy)chroman-4-yl}acrylamide] reads 0.1 to 1 µM; that for `C=CC(=O)NCC1CCOc2cc(Oc3ccc(Cl)cc3)ccc21` (stereo not shown) [Compound 26, N-[{7-(4-Chlorophenoxy)chroman-4-yl}methyl]acrylamide], 0.1 to 1 µM; that for `Cc1c(Oc2ccc(C(F)(F)F)cc2)ccc2c1OCCC2NC(=O)/C=C/C(F)(F)F` (stereo not shown) [Compound 29, (E)-4,4,4-Trifluoro-N-[8-methyl-7-{4-(trifluoromethyl)phenoxy}chroman-4-yl]-2-butenamide], 0.1 to 1 µM.
Compound `C=CC(=O)NC1CCOc2c1ccc(Oc1ccc(Cl)cc1)c2F` (stereo not shown) [Compound 30, N-{7-(4-Chlorophenoxy)-8-fluorochroman-4-yl}acrylamide] had a GI50 (group less than 100 nmol/L) of less than 0.1 µM.
Where the note is “group less than 100 nmol/L”, `C=CC(=O)NC1COc2cccc(Oc3ccc(Cl)cc3)c2C1` (stereo not shown) [Compound 34, N-{5-(4-Chlorophenoxy)chroman-3-yl}acrylamide] returned a 50% growth inhibitory concentration (GI50) of less than 0.1 µM.
Still for that read-out and setting: the result for `C=CC(=O)NC1COc2c(Oc3ccc(Cl)cc3)cccc2C1=O` (stereo not shown) [Compound 39, N-{8-(4-Chlorophenoxy)-4-oxochroman-3-yl}acrylamide] reads less than 0.1 µM; that for `C=CC(=O)NC1COc2c(cccc2Oc2cccc(C(F)(F)F)c2)C1` (stereo not shown) [Compound 43, N-[8-{3-(Trifluoromethyl)phenoxy}chroman-3-yl]acrylamide], less than 0.1 µM.
Still for that read-out and setting: the result for `C=CC(=O)NC1COc2c(cccc2Oc2ccc(C(F)(F)F)cc2)C1` (stereo not shown) [Compound 44, N-[8-{4-(Trifluoromethyl)phenoxy}chroman-3-yl]acrylamide] reads less than 0.1 µM.
`C=CC(=O)NC1COc2c(cccc2Oc2ccc(Cl)nc2)C1` (stereo not shown) [Compound 49, N-[8-{(6-Chloropyridin-3-yl)oxy}chroman-3-yl]acrylamide]: under setting [1], the GI50 lay within 0.1 to 1 µM.
With `C=CC(=O)NC1COc2c(cccc2Oc2ccc(C(F)(F)F)cn2)C1` (stereo not shown) [Compound 50, N-(8-[{5-(Trifluoromethyl)pyridin-2-yl}oxy]chroman-3-yl)acrylamide], the GI50 (group less than 100 nmol/L) was less than 0.1 µM.
The compound `C=CC(=O)NC1COc2c(cccc2Oc2cnc(Cl)c(C)c2)C1` (stereo not shown) [Compound 56, N-[8-{(6-Chloro-5-methylpyridin-3-yl)oxy}chroman-3-yl]acrylamide] showed a concentration for 50% growth inhibition (GI50) (group less than 100 nmol/L) of less than 0.1 µM.
Compound `C=CC(=O)Nc1cnc(C)c(Oc2ccc(Cl)cc2)c1` [Compound 92, N-{5-(4-Chlorophenoxy)-6-methylpyridin-3-yl}acrylamide] returned a GI50 under setting [1] of 0.1 to 1 µM.
With `C=CC(=O)Nc1cc(Oc2ccc(Cl)cc2)cnc1C` [Compound 93, N-{5-(4-Chlorophenoxy)-2-methylpyridin-3-yl}acrylamide], the GI50 under setting [1] was in the range of 0.1 to 1 µM.
The same measure, in the same setting: the same measure for `C=CC(=O)Nc1cncc(Oc2ccc(Cl)cc2)c1` [Compound 94, N-{5-(4-chlorophenoxy)pyridin-3-yl}acrylamide]: 0.1 to 1 µM.
Turning to `C=CC(=O)Nc1cncc(Oc2ccc(OC(F)(F)F)cc2)c1` [Compound 100, N-[5-{4-(Trifluoromethoxy)phenoxy}pyridin-3-yl]acrylamide], the GI50 (group less than 100 nmol/L) is less than 0.1 µM.
Regarding `C=CC(=O)Nc1cncc(Oc2cccc(OCC)c2)c1` [Compound 101, N-{5-(3-Ethoxyphenoxy)pyridin-3-yl}acrylamide], under setting [1], the GI50 lay within 0.1 to 1 µM.
For the compound `C=CC(=O)Nc1cncc(Oc2ccc(OCC)cc2)c1` [Compound 102, N-{5-(4-Ethoxyphenoxy)pyridin-3-yl}acrylamide], the GI50 under setting [1] was in the range of 0.1 to 1 µM.
On the same count and under the same terms, the same measure for `C=CC(=O)Nc1cncc(Oc2ccc(OC(C)C)cc2)c1` [Compound 103, N-{5-(4-Isopropoxyphenoxy)pyridin-3-yl}acrylamide]: 0.1 to 1 µM; for `C=CC(=O)Nc1cncc(Oc2ccc(Cl)c(Cl)c2)c1` [Compound 105, N-{5-(3,4-Dichlorophenoxy)pyridin-3-yl}acrylamide]: 0.1 to 1 µM.
Still for that read-out and setting: the result for `C=CC(=O)Nc1ccc(Oc2ccc(Cl)cc2)c2ncccc12` [Compound 116, N-{8-(4-Chlorophenoxy)quinolin-5-yl}acrylamide] reads 0.1 to 1 µM.
On the same count and under the same terms, the result for `C=CC(=O)Nc1ccc(OC2CCC(F)(F)CC2)c2ncccc12` [Compound 120, N-[8-{(4,4-Difluorocyclohexyl)oxy}quinolin-5-yl]acrylamide] reads 0.1 to 1 µM.

The values above are taken from patent US11332455B2, “α,β-unsaturated amide compound” (KYOWA KIRIN CO., LTD., priority 2015, dated 2022).
